These results are taken from patent US9216170B2, “Combination therapy for proliferative disorders” (Hoffman-La Roche Inc., priority 2012, dated 2015).

The test system of series [1] is RKO cell xenografts. Briefly: Assessment of survival / increase in life span (ILS) in RKO xenograft-bearing mice. Format: in vivo. Conditions: for % Increased Life Span: Table 3; for % ILS: Table 4; for 50% Treatment Days: median survival day. As for the experimental part: (§1) Mice were implanted with RKO cell xenografts. The mice, cell line used, and implantation are described below.
(§2) RKO cells (American Type Culture Collection, Rockville, Md.) were maintained in DMEM media+10% (v/v) heat-inactivated FBS+1% (v/v) […] L-glutamine. Each mouse received 2×10^6 cells in a total volume of 0.2 ml. Cells were implanted subcutaneously in the right flank of each mouse using a 1 cc syringe and a 26 gauge needle.
(§3) RKO xenograft-containing mice were randomized into groups of 10 mice each according to tumor volume so that all groups had similar starting mean tumor volumes of about 145 mm^3.
(§4) 10 groups of mice were used.
(§5) Treatment duration was 2 weeks.
For survival assessment, results are plotted as the percentage survival against days after tumor implant (GraphPad Prism, version 5.03). An individual tumor volume of 1500 mm^3 was used as a surrogate for death. The % ILS was calculated as 100×[(median survival day of treated group−median survival day of control group)/median survival day of control group]. Median survival was determined utilizing Kaplan Meier survival analysis. Survival in treated groups was compared with the vehicle group by Log-rank (Mantel-Cox) Test (GraphPad Prism, version 4.3, La Jolla, Calif.). Differences between groups were considered significant when the probability value (p) was ≦0.05.

The test system of series [2] is RKO cell xenografts. As to the kind of experiment: Tumor growth inhibition in RKO xenograft-bearing mice. Format: in vivo. Conditions: for Mean Tumor Volume (mm^3) Start Study DAY: 14: baseline; for Full Regression / Partial Regression: number of animals. The protocol:
as §1, §2, §3, §4, §5
Efficacy data was graphically represented as the mean tumor volume±standard error of the mean (SEM). Tumor volumes of treated groups were presented as percentages of tumor volumes of the control groups (% T/C), using the formula: 100×((T−T0)/(C−C0)), where T represented mean tumor volume of a treated group on a specific day during the experiment, T0 represented mean tumor volume of the same […] group on the first day of treatment; C represented mean tumor volume of a control group on the specific day during the experiment, and C0 represented mean tumor volume of the same […] group on the first day of treatment.
Tumor volume (in cubic millimeters) was calculated using the ellipsoid formula: (D×(d2))/2 where ‘D’ represents the large diameter of the tumor, and ‘d’ represents the small diameter.
Statistical analysis of treated groups was compared with the vehicle group with Mann-Whitney Rank Sum Test, comparisons between groups were analyzed by one-way ANOVA, and post-hoc Bonferroni t-test (GraphPad Prism, version 5.03). Differences between groups were considered to be significant when the probability value (p) was ≦0.05.

Setting [3] is: Compound III 100 mg/kg qweekly po.
[4] abbreviates: Compound II 200 mg/kg qweekly po.

Read-outs that look alike come from different tables or passages of the source.

Consider `CCCS(=O)(=O)Nc1ccc(F)c(C(=O)c2c[nH]c3ncc(-c4ccc(Cl)cc4)cc23)c1F` [vemurafenib, Propane-1-sulfonic acid {3-[5-(4-chlorophenyl)-1H-pyrrolo[2,3-b]pyridine-3-carbonyl-2,4-difluoro-phenyl]-amide}, reference compound], for which the “% Increased Life Span” value in the series on RKO cell xenografts [1] (vemurafenib 50 mg/kg bid po) came out at 0%. In addition, in the series on RKO cell xenografts [1] (vemurafenib 50 mg/kg), the “% ILS” value was found to be 0% and the “50% Treatment Days” value came to 24 days. Also, under “vemurafenib 50 mg/kg bid po”, the “# of animals ≧ 20% BWL” value was determined as 0, the “% Change in Body Weight at end of Study Day 28” value (“% Change in Body Weight at end” for short) came to 4.6%, the “Max % Weight Gain” value turned out to be 7.5% and the “Max % Weight Loss” value is listed as 2.8%. The compound further returned a Mortality (vemurafenib 50 mg/kg bid po) of 0. Also, in the series on RKO cell xenografts [2] (vemurafenib 50 mg/kg bid po), the “% Inhibition end of study Day: 28” value was found to be 7%, the “% T/C end of study Day: 28” value worked out at 93%, the “Mean Tumor Volume (mm^3) End Study DAY: 29” value (shortened to “Mean Tumor Volume … 29”) is recorded as 1643.76 mm^3 and the “Mean Tumor Volume (mm^3) Start Study DAY: 14” value (from here on “Mean Tumor Volume … 14”) amounted to 142.50 mm^3. Also, in the series on RKO cell xenografts [2] (vemurafenib 50 mg/kg bid po), the “Full Regression” value amounted to 0 and the “Partial Regression” value is given as 0.
With `COc1cc(C(=O)O)ccc1NC(=O)[C@@H]1N[C@@H](CC(C)(C)C)[C@](C#N)(c2ccc(Cl)cc2F)[C@H]1c1cccc(Cl)c1F` [Compound III], the “% Increased Life Span” value in the series with RKO cell xenografts [1] (Compound III 80 mg/kg qdx5 po) is 29%. Further, in the series with RKO cell xenografts [1] (setting [3]), the “% Increased Life Span” value is given as 29%. For the same compound, in the series with RKO cell xenografts [1] (Compound III 80 mg/kg), the “% ILS” value is on record as 29% and the “50% Treatment Days” value was determined as 31 days. In the series on RKO cell xenografts [1] (Compound III 100 mg/kg), the “% ILS” value is recorded as 29% and the “50% Treatment Days” value turned out to be 31 days. Where the note is “Compound III 80 mg/kg qdx5 po”, the “# of animals ≧ 20% BWL” value was determined as 0, the “% Change in Body Weight at end” value was found to be 5.3%, the “Max % Weight Gain” value is 7.4% and the “Max % Weight Loss” value was 5.3%. This compound came in with a Mortality (Compound III 80 mg/kg qdx5 po) of 0. Besides, under setting [3], the “# of animals ≧ 20% BWL” value stood at 0, the “% Change in Body Weight at end” value is listed as 6.6%, the “Max % Weight Gain” value was 7.5% and the “Max % Weight Loss” value is 4.7%. The compound also returned a Mortality under setting [3] of 0. In the series on RKO cell xenografts [2] (Compound III 80 mg/kg qdx5 po), the “% Inhibition end of study Day: 28” value came out at 65%, the “% T/C end of study Day: 28” value is given as 35%, the “Mean Tumor Volume … 29” value is on record as 705.24 mm^3 and the “Mean Tumor Volume … 14” value was 143.00 mm^3. Moreover, in the series on RKO cell xenografts [2] (Compound III 80 mg/kg qdx5 po), the “Full Regression” value came to 0 and the “Partial Regression” value is recorded as 0. In addition, in the series on RKO cell xenografts [2] (setting [3]), the “% Inhibition end of study Day: 28” value is listed as 50%, the “% T/C end of study Day: 28” value is given as 50%, the “Mean Tumor Volume … 29” value stood at 952.64 mm^3 and the “Mean Tumor Volume … 14” value amounted to 147.78 mm^3. Besides, in the series on RKO cell xenografts [2] (setting [3]), the “Full Regression” value is 0 and the “Partial Regression” value amounted to 0.
For `CCOc1cc(C(C)(C)C)ccc1C1=N[C@@](C)(c2ccc(Cl)cc2)[C@@](C)(c2ccc(Cl)cc2)N1C(=O)N1CCN(CCCS(C)(=O)=O)CC1` [Compound II], the “% Increased Life Span” value with RKO cell xenografts [1] (Compound II 100 mg/kg qd po) is listed as 29%. For the same compound, the “% Increased Life Span” value with RKO cell xenografts [1] (setting [4]) turned out to be 0%. In the series on RKO cell xenografts [1] (Compound II 100 mg/kg), the “% ILS” value stood at 29% and the “50% Treatment Days” value is 31 days. In the series with RKO cell xenografts [1] (Compound II 200 mg/kg), the “% ILS” value turned out to be 0% and the “50% Treatment Days” value is 24 days. Under “Compound II 100 mg/kg qd po”, the Reason for mortality/morbidity entry is on record as “Technical”. In addition, in the series with RKO cell xenografts [2] (Compound II 100 mg/kg qd po), the “% Inhibition end of study Day: 28” value was 64%, the “% T/C end of study Day: 28” value worked out at 36%, the “Mean Tumor Volume … 29” value is listed as 726.30 mm^3 and the “Mean Tumor Volume … 14” value amounted to 146.39 mm^3. Besides, in the series on RKO cell xenografts [2] (Compound II 100 mg/kg qd po), the “Full Regression” value came to 0 and the “Partial Regression” value is on record as 0. Moreover, in the series on RKO cell xenografts [2] (setting [4]), the “% Inhibition end of study Day: 28” value is listed as 18%, the “% T/C end of study Day: 28” value was 82%, the “Mean Tumor Volume … 29” value was 1466.93 mm^3 and the “Mean Tumor Volume … 14” value amounted to 141.33 mm^3. Also, in the series with RKO cell xenografts [2] (setting [4]), the “Full Regression” value came to 0 and the “Partial Regression” value worked out at 0.
